Patent US20180221343A1, “PHARMACEUTICAL COMPOSITION FOR PREVENTING OR TREATING MACULAR DEGENERATION” (KOREA RESEARCH INSTITUTE OF CHEMICAL TECHNOLOGY, priority 2011, published 2018)

How the values were obtained:
corneal epithelial cells = experiment: Effects on normal regeneration of corneal epithelial cells in animal models; format: in vivo, rats; conditions: eye drop 50 μl twice a day
Procedure: Animal models having damage in the corneal epithelial cells were established by anesthetizing rats (8 weeks old, 200 g to 250 g) with a mixed solution of rompun and zoletil (1 ml/kg) and then scraping the corneal epithelial cells at the center of the cornea in a circular form having 2 mm diameter with a surgical knife. The removal of corneal epithelial cells was confirmed with a 1% fluorescein solution. The eye drop formulation (50 μl) used in Example 2 was administered twice a day, i.e., every 12 hours. The evaluations quantifying the photographs of FIG. 5 were performed by using the Image J (NIH, USA) program and the results thereof were shown in FIG. 6.

retinal angiogenesis = experiment: Laser-induced retinal damage model in micro pigs, fluorescein intensity; format: in vivo, Yutacan Micro pigs
Procedure: The tests were performed by using Yutacan Micro pigs (3 kg, male) as animal models having retinal damage (15 pigs for the experiment group). The retinal macular degeneration models were established according to the same procedures as in Brown Norway rats of Example 5. The eye drop formulation (100 μl, 0.9 mg/ml) prepared according to the same procedures as in Example 2 was administered four times per day for 2 weeks. For vitreous injection, the solution of the same compound (20 μl, 0.3 mg/ml) was injected into the vitreous humor once. 2 weeks after the administrations, 1% fluorescein was intravenously injected so as to observe the laser-induced damage site; and the effects of the compound of the present invention, i.e., (2R,3R,4S)-6-amino-4-[N-(4-chlorophenyl)-N-(1H-imidazol-2-ylmethyl)amino]-3-hydroxy-2-methyl-2-dimethoxymethyl-3,4-dihydro-2H-1-benzopyran. The evaluations quantifying the photographs of FIG. 9 were performed by using the Image J (NIH, USA) program and the results thereof were shown in FIG. 10.

[1] = test system: rat corneal epithelial wound; experiment: Corneal Wound Healing Assay (2); format: in vivo, SD rats; conditions: topical 3 and 6 mg/ml every 6 hour; observed at 0 and 18 hours
Procedure: SD rats (male, 8 weeks, 250 g) were used. Animal study protocol was in accordance with the Association for Research in Vision and Ophthalmology Statement for the Use of Animals in Ophthalmic and Visual Research. All animals were housed in individual cages and maintained under standard conditions (12 hour light-dark cycle).
Rats were anesthetized by Zoletil® (50 mg/kg, Tiletamina 25 mg, Zolazepam 25 mg; Vibrac, Carros, France) and Rompun® (10 mg/kg, Bayer, France). The cornea was anesthetized by topical 0.5% proparacaine (Alcaine®; Alcon, Fort Worth, Tex., USA). After applying 0.5% proparacaine drops, 5.0 mm Trephine Blade® (Katena, Denville, N.J., USA) was placed and fixed firmly on the corneal surface. One drop of 20% ethanol were put into the tephine well and left in place for 30 seconds, then absorbed with a dry cellulose sponge (Merocel®; Medtronic Solan, Jacksonville, Fla., USA) and irrigated with normal saline. And the epithelium was removed in 6.0 mm diameter.
The drugs were each topically applied in 3 mg/ml (0.3%) and 6 mg/ml (0.6%) concentrations (in 5% DMSO, 10% PEG (Mw 400) and 85% saline (0.9% NaCl)) in every 6 hour, respectively.
The corneal wounds were captured by digital camera under cobalt blue light and the defect area was analyzed by Image J software (Ver 4.1, NIH). The significance between Vehicle and each group was analyzed by paired T-test, and the significance of the test was analyzed by One Way ANOVA analysis.

Compound: COC(OC)[C@]1(C)Oc2ccc(N)cc2[C@H](N(Cc2ncc[nH]2)c2ccc(Cl)cc2)[C@H]1O [KR-31831, (2R,3R,4S)-6-amino-4-[N-(4-chlorophenyl)-N-(1H-imidazol-2-ylmethyl)amino]-3-hydroxy-2-methyl-2-dimethoxymethyl-3,4-dihydro-2H-1-benzopyran]
- healing rate of corneal epithelial damage (corneal epithelial cells; 0 hour after the administration): 52±9%
- healing rate of corneal epithelial damage (corneal epithelial cells; 18 hours after the administration): 55±9%
- healing rate of corneal epithelial damage (corneal epithelial cells; 36 hours after the administration): 94±8%
- intensity at laser-induced damage site (non-drug administered control group = 1) (retinal angiogenesis; eye drop formulation 100 μl, 0.9 mg/ml, 4 times per day, 2 weeks): 0.46±0.17
- intensity at laser-induced damage site (non-drug administered control group = 1) (retinal angiogenesis; vitreous injection 20 μl, 0.3 mg/ml, once, 2 weeks after): 0.36±0.14
- inhibitory effect on normal healing of rat corneal epithelial wound [1]: did not show inhibitory effect
